In article PMC10824269 (Journal of the American Chemical Society, 2021):

Target: GsTyDC/DDC (Gloriosa superba, UniProt A0A7D5Q853)
Assay type: cell-based
Details: leaves of N. benthamiana

## N[C@@H](Cc1ccc(O)c(O)c1)C(=O)O [L-DOPA]
  LC-MS, transient expression in N. benthamiana: GsTyDC/DDC is capable of acting on act on either L-Tyr or L-DOPA (Figure S15)
